From patent US20230064034A1, “LIGHT STABLE LIQUID DISINFECTANT COMPOSITIONS” (Onyx Lotus, LLC, priority 2021, published 2023) come the findings set out here.

For the experiment, the system named is E. coli. The experiment can be described thus: Durability test: wiped aluminum coupons, surface tested for E. coli by ASTM E-2315. Format: cell-based, Escherichia coli. As to conditions: aluminum coupon wiped 40 times. The procedure:
The durability test was designed to identify the number of times a surface can be wiped under pressure and prevent growth of pathogens on the surface after the light stable disinfectant was applied. The liquid composition contains 100 mL distilled water, 1.25 g EDTA, 0.01 g silver nitrate, and 0.5 g PVP K-30 having a 100 ppm concentration of silver. Five test solutions were evaluated: 10 mL liquid disinfectant composition, sodium hypochlorite, […] (peracetic acid), and Lysol. This 100 ppm solution of silver solution was loaded into a sprayer and sprayed onto 1×1'' sterilized aluminum or stainless-steel coupons. The aluminum coupons were wiped with a sterilized non-scratch scouring sponge or a soft cloth with a 1 kg weight on top of the non-scratch scouring sponge or a soft cloth then autoclaved. After the aluminum coupons had cooled to room temperature, the test solutions were sprayed onto the coupons. […]

The structures appear in SMILES notation.

Turning to `OCl` [Sodium hypochlorite], the reduction is on record as 0%.
